Experimental data published in paper PMC8222254, “Self-assembly of an anion receptor with metal-dependent kinase inhibition and potent in vitro anti-cancer properties” (Nature Communications, 2021).
Values joined by “and” are separate entries in the source; they are usually repeats but may differ in a detail not shown here. Identical values can stand only once.

Experiments:
Assay in all cases: Kinase inhibition screen, cell-free 33P ATP assay at 10 μM
Type in all cases: biochemical
[1] = molecular target: T1, 140 purified human kinases (Homo sapiens, UniProt O60285)
T1 sequence (O60285 1-661): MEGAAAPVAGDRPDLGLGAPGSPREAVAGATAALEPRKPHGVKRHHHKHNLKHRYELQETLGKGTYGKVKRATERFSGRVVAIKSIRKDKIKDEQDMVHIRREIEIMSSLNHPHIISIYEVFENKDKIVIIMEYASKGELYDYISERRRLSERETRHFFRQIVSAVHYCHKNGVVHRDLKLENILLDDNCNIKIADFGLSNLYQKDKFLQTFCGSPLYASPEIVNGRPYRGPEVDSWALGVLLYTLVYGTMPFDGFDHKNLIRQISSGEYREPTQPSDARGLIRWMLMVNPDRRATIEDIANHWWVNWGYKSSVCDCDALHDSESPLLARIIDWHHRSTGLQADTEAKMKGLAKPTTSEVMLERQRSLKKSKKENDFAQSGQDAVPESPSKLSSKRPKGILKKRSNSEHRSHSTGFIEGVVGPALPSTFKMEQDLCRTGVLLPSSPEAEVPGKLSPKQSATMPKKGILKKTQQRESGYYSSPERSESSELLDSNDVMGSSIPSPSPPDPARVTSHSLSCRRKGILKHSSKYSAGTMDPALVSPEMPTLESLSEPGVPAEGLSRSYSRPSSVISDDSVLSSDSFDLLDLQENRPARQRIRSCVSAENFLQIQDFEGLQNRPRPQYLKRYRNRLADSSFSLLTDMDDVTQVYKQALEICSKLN
Outline: (§1)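 Each complex tested in duplicate at 10 μM; cell-free radiometric assay using ^33P ATP on purified enzymes. Hits mapped by HGNC symbol onto the kinome tree.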

[2] = molecular target: 140 purified human kinases (Homo sapiens, UniProt Q9P0L2)
Sequence of 140 purified human kinases (Homo sapiens, UniProt Q9P0L2) (Q9P0L2 whole entry): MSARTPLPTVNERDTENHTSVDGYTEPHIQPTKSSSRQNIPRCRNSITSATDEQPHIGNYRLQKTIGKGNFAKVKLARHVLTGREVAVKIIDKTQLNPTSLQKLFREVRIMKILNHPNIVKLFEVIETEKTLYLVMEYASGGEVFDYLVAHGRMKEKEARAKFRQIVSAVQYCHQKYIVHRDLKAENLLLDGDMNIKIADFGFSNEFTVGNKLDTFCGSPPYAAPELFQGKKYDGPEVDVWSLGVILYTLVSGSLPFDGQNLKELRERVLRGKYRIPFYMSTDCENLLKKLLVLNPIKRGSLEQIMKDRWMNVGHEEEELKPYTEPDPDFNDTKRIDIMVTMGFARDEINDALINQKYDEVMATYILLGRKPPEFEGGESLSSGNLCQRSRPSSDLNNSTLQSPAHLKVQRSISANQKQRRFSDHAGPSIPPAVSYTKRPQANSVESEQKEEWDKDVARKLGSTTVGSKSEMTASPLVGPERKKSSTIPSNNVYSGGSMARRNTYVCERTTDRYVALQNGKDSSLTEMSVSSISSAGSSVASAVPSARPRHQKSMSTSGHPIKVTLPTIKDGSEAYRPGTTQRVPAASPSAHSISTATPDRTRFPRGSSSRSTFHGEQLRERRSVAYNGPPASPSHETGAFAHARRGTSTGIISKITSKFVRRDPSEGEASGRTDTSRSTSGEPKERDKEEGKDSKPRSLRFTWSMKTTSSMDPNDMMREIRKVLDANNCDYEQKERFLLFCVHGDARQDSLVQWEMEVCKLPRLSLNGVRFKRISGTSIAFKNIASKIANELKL
Outline: as §1

[3] = molecular target: T2, 140 purified human kinases (Homo sapiens, UniProt P54760)
T2 sequence (P54760 16-987): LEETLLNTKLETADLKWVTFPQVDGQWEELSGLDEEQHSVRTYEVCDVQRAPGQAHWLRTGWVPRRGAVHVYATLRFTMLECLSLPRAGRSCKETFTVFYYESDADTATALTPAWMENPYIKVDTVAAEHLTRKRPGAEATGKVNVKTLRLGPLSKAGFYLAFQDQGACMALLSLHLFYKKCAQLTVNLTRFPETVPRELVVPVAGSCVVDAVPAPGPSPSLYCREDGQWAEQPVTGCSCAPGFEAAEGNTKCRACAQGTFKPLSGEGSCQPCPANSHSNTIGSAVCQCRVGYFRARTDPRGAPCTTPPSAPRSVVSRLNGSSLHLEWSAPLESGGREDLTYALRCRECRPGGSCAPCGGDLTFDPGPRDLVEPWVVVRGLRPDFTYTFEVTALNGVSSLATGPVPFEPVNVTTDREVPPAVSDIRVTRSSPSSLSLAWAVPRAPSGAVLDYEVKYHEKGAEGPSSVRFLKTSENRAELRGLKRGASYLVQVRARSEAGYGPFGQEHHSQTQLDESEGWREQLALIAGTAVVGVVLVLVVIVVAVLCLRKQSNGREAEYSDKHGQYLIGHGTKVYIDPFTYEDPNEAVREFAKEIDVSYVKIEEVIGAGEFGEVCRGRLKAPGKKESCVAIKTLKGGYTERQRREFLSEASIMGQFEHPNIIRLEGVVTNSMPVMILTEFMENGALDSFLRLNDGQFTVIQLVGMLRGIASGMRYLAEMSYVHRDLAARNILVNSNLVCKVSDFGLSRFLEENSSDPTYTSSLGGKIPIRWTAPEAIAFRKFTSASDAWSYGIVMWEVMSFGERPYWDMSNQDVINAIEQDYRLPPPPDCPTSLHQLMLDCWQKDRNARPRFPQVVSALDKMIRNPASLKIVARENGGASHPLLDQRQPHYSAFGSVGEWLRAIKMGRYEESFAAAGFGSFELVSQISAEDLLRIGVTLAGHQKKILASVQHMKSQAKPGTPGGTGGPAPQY
Outline: as §1

[4] = molecular target: 140 purified human kinases (Homo sapiens, UniProt O75582)
Sequence of 140 purified human kinases (Homo sapiens, UniProt O75582) (O75582 whole entry): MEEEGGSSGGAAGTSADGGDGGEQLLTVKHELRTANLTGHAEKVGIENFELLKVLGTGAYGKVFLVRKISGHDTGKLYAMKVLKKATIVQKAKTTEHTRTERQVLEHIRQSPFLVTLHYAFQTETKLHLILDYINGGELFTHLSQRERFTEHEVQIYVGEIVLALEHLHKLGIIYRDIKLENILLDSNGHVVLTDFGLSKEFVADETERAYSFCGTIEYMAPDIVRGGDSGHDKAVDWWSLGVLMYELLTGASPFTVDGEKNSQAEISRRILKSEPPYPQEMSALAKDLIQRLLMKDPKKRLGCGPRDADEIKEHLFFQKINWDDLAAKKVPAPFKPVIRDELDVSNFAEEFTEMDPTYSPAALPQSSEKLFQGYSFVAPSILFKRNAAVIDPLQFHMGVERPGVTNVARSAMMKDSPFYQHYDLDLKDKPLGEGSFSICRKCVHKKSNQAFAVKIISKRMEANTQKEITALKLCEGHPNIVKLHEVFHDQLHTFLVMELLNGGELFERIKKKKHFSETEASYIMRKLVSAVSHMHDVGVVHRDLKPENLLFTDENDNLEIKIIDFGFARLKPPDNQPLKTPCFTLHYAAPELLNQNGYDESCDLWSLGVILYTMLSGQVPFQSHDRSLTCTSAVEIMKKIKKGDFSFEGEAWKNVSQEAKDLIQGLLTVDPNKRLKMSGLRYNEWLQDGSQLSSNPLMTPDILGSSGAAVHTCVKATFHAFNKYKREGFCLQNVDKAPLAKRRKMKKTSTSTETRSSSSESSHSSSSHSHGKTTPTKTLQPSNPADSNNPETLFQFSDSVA
Outline: as §1

[5] = molecular target: 140 purified human kinases (Homo sapiens, UniProt Q16816); conditions: PHK
Sequence of 140 purified human kinases (Homo sapiens, UniProt Q16816) (Q16816 whole entry): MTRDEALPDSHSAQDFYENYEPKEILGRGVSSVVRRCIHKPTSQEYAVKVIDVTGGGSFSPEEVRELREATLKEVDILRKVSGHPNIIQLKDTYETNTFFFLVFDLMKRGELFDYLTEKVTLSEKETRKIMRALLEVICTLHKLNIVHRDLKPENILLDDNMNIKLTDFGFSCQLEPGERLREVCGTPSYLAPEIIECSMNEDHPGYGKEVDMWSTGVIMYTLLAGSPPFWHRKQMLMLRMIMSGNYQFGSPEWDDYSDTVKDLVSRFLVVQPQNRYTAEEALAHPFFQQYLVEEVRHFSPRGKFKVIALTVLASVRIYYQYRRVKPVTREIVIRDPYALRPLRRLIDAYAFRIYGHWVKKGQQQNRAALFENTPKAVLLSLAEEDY
Outline: as §1

[6] = molecular target: 140 purified human kinases (Homo sapiens, UniProt Q9Y6E0)
Sequence of 140 purified human kinases (Homo sapiens, UniProt Q9Y6E0) (Q9Y6E0 whole entry): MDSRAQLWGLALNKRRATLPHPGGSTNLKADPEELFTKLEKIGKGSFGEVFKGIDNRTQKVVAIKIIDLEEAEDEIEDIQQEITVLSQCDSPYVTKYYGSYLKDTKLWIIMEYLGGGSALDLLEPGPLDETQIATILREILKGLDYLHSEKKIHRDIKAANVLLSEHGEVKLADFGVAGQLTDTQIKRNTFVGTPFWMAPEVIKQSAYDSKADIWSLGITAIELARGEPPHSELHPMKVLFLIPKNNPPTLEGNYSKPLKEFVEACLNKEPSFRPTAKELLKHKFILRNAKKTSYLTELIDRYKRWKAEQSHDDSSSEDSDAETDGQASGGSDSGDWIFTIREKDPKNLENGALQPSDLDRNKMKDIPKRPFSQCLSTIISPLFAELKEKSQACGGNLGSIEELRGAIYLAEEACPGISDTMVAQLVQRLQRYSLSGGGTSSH
Outline: as §1

[7] = molecular target: 140 purified human kinases (Homo sapiens, UniProt Q9BYT3)
Sequence of 140 purified human kinases (Homo sapiens, UniProt Q9BYT3) (Q9BYT3 whole entry): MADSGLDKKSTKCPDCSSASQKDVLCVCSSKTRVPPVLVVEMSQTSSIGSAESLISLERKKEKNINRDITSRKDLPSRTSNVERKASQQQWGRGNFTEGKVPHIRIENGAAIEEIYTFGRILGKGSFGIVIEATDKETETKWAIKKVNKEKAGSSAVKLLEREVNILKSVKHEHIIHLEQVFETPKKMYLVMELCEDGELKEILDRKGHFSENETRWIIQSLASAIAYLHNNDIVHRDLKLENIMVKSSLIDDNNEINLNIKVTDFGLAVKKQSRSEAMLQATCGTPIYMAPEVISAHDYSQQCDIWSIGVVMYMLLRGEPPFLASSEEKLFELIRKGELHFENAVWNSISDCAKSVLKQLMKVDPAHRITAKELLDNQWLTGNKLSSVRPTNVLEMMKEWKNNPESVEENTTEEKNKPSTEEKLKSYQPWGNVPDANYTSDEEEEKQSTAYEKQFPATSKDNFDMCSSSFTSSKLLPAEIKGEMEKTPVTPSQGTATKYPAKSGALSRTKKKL
Outline: as §1

[8] = molecular target: 140 purified human kinases (Homo sapiens, UniProt P45984)
Sequence of 140 purified human kinases (Homo sapiens, UniProt P45984) (P45984 whole entry): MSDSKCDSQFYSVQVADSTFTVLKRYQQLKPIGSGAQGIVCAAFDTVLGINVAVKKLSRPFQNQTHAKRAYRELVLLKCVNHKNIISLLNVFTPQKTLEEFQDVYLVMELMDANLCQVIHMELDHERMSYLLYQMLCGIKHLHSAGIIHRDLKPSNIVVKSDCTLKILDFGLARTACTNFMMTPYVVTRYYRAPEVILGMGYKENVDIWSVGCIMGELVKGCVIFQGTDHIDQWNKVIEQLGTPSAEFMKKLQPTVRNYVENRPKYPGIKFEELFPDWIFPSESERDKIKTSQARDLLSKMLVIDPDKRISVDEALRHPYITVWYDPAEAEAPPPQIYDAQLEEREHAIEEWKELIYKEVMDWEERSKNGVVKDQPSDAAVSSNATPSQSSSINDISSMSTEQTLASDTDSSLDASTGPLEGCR
Outline: as §1

SMILES: [Cu+2].[Cu+2].[Cu+2].c1ccc(-c2csc(NCCN(CCNc3nc(-c4ccccn4)cs3)CCNc3nc(-c4ccccn4)cs3)n2)nc1.c1ccc(-c2csc(NCCN(CCNc3nc(-c4ccccn4)cs3)CCNc3nc(-c4ccccn4)cs3)n2)nc1 [[L2Cu3]6+]
- % Inhibition Run 1 ([1]; NUAK1): 93.9%
- % Inhibition Run 2 ([1]; NUAK1): 92.9%
- % Inhibition, Mean ([1]; NUAK1): 93%
- mean % activity ([1]; NUAK1): 6.6%
- % activity ([1]; NUAK1, Run 1): 6.1%
- % activity ([1]; NUAK1, Run 2): 7.1%
- % Activity inhibition Mean ([1]; NUAK1, 10 µM): 93.4%
- % Activity inhibition Run 1 ([1]; NUAK1, 10 µM): 93.9%
- % Activity inhibition Run 2 ([1]; NUAK1, 10 µM): 92.9%
- % Activity remaining Run 1 ([1]; NUAK1, 10 µM): 6.10%
- % Activity remaining Run 2 ([1]; NUAK1, 10 µM): 7.10%
- % Inhibition Run 1 ([2]; MARK1): 26.5%
- % Inhibition Run 2 ([2]; MARK1): 16.9%
- % Inhibition, Mean ([2]; MARK1): 22%
- mean % activity ([2]; MARK1): 78%
- % activity ([2]; MARK1, Run 1): 73.5%
- % activity ([2]; MARK1, Run 2): 83.1%
- % Inhibition Run 1 ([3]; EPH-B4): 53.6%
- % Inhibition Run 2 ([3]; EPH-B4): 47.1%
- % Inhibition, Mean ([3]; EPH-B4): 50%
- mean % activity ([3]; EPH-B4): 50%
- % activity ([3]; EPH-B4, Run 1): 46.4%
- % activity ([3]; EPH-B4, Run 2): 52.9%
- % Inhibition Run 1 ([4]; MSK1): 67.5%
- % Inhibition Run 2 ([4]; MSK1): 74.8%
- % Inhibition, Mean ([4]; MSK1): 71%
- mean % activity ([4]; MSK1): 29%
- % activity ([4]; MSK1, Run 1): 32.5%
- % activity ([4]; MSK1, Run 2): 25.2%
- % Inhibition Run 1 [5]: 59.9%
- % Inhibition Run 2 [5]: 49.3%
- % Inhibition, Mean [5]: 55%
- mean % activity [5]: 45%
- % Inhibition Run 1 ([6]; MST3): 9.9%
- % Inhibition Run 2 ([6]; MST3): -5.7%
- % Inhibition, Mean ([6]; MST3): 2%
- mean % activity ([6]; MST3): 98%
- % activity ([6]; MST3, Run 1): 90.1%
- % activity ([6]; MST3, Run 2): 105.7%
- % Activation, Mean value ([7]; STK33): 7%
- % Inhibition Run 1 ([7]; STK33): -1.8%
- % Inhibition Run 2 ([7]; STK33): -12.3%
- % Inhibition, Mean ([7]; STK33): -7%
- mean % activity ([7]; STK33): 107%
- % activity ([7]; STK33, Run 1): 101.8%
- % activity ([7]; STK33, Run 2): 112.3%
- % Inhibition Run 1 ([8]; JNK2): 22.9%
- % Inhibition Run 2 ([8]; JNK2): 15.4%
- % Inhibition, Mean ([8]; JNK2): 19%
- mean % activity ([8]; JNK2): 81%
- % activity ([8]; JNK2, Run 1): 77.1%
- % activity ([8]; JNK2, Run 2): 84.6%

SMILES: CC(=O)[O-].CC(=O)[O-].CC(=O)[O-].CC(=O)[O-].CC(=O)[O-].CC(=O)[O-].[Zn+2].[Zn+2].[Zn+2].c1ccc(-c2csc(NCCN(CCNc3nc(-c4ccccn4)cs3)CCNc3nc(-c4ccccn4)cs3)n2)nc1.c1ccc(-c2csc(NCCN(CCNc3nc(-c4ccccn4)cs3)CCNc3nc(-c4ccccn4)cs3)n2)nc1 [[L2Zn3]6+]
- % Inhibition, Mean ([1]; NUAK1): 61%
- % Inhibition, Run 1 / Run 2 ([1]; NUAK1): 64% and 59%
- mean % activity ([1]; NUAK1): 39%
- % activity ([1]; NUAK1, duplicate runs): 36% and 41%
- % Inhibition, Mean ([2]; MARK1): 23%
- % Inhibition, Run 1 / Run 2 ([2]; MARK1): 26% and 20%
- mean % activity ([2]; MARK1): 77%
- % activity ([2]; MARK1, duplicate runs): 74% and 80%
- % Inhibition, Mean ([3]; EPH-B4): 52%
- % Inhibition, Run 1 / Run 2 ([3]; EPH-B4): 52%
- mean % activity ([3]; EPH-B4): 48%
- % activity ([3]; EPH-B4, duplicate runs): 48%
- % Inhibition, Mean ([4]; MSK1): 22%
- % Inhibition, Run 1 / Run 2 ([4]; MSK1): 27% and 18%
- mean % activity ([4]; MSK1): 78%
- % activity ([4]; MSK1, duplicate runs): 73% and 82%
- % Inhibition, Mean [5]: 64%
- mean % activity [5]: 36%
- % activity ([5]; duplicate runs): 32% and 39%
- % Inhibition, Mean ([6]; MST3): 0.4%
- % Inhibition, Run 1 / Run 2 ([6]; MST3): -3.6% and 4.4%
- mean % activity ([6]; MST3): 100%
- % activity ([6]; MST3, duplicate runs): 104% and 96%
- % Inhibition, Mean ([7]; STK33): 6.55%
- % Inhibition, Run 1 / Run 2 ([7]; STK33): 3.3% and 10%
- mean % activity ([7]; STK33): 93%
- % activity ([7]; STK33, duplicate runs): 97% and 90%
- % Inhibition, Mean ([8]; JNK2): 31%
- % Inhibition, Run 1 / Run 2 ([8]; JNK2): 33% and 28%
- mean % activity ([8]; JNK2): 70%
- % activity ([8]; JNK2, duplicate runs): 67% and 72%
